Source: patent US20160374979A1, “Method of Treatment of Alopecia with Monoterpenoids” (CELLMID LIMITED, priority 2013, published 2016)

Legend:
alopecia patients = conditions: cited from earlier work
[1] = system: murine vibrissae follicles; assay: Hair shaft elongation of murine vibrissae follicles cultured ex vivo; parameters: species or system C3H mice; conditions: exogenous FGF-5 300 ng/mL, 8 days, versus control (FIGS. 20 and 21)
Text: Five week old male C3H mice (supplied by Japan SLC, lnc., Hamamatsu, Japan) were used for isolation of vibrissae follicles. The mice were sacrificed and the vibrissae follicles were carefully dissected from the mystacial pad. Briefly, the mystacial pad was cut into two sides (left and right). The skin cut, picked at the edge by tweezers, was washed in (i) 70% Ethanol for 30 seconds, (ii) PBS for 10 seconds, (iii) fresh PBS for 10 seconds, and (iv) another fresh PBS for 10 seconds. This washing process was repeated twice. After washing, the skin cut was placed inverted to expose the vibrissae follicles in Dulbecco's Modified Eagle's Medium (DMEM; Wako Pure Chemical, Osaka, Japan) at 37° C. Under a dissecting microscope, the surrounding tissue was removed from the follicles using tweezers, carefully so as not to destroy the structure of the follicles. The isolated follicles were then placed immediately into Williams' E medium (Life Technologies, Carlsbad, USA).
From the isolated mouse vibrissae follicles, only early anagen follicles were selected and randomized into groups with 30 follicles per group. […]
Follicles in each of the treatment and control groups were incubated at 37° C. at 5% CO2 for 8 days, while exchanging the respective culture mediums every 2 days. From Day 1, elongation of hair shafts was observed and the elongation length was measured for each hair shaft every 24 hours from Day 1 to Day 8 using a micrometer under microscope. […]
Follicles in each of the treatment and control groups were incubated at 37° C. at 5% CO2 for 5 days, while exchanging the culture medium every 3 days. From Day 1, elongation of hair shafts was observed and the elongation length was measured for each hair shaft every 24 hours from Day 1 to Day 5. using a micrometer under microscope. […]

Nc1cc(N2CCCCC2)nc(N)[n+]1[O-] [Minoxidil]
patients with irritation of the scalp (dryness, scaling, itching, redness) (alopecia patients; 2% solution): approximately 7%

CC(C)(C)NC(=O)[C@H]1CC[C@H]2[C@@H]3CC[C@H]4NC(=O)C=C[C@]4(C)[C@H]3CC[C@]12C [finasteride, Finasteride]
balding male recipients with poor or no response (alopecia patients; finasteride treatment): ≥ 35%

B1: FGF-5: FGF-5 protein (R&D Systems) added to follicle culture medium at 300 ng/mL (protein, UniProt P12034 21-268, looked up)
Fibroblast growth factor 5: HGEKRLAPKGQPGPAATDRNPRGSSSRQSSSSAMSSSSASSSPAASLGSQGSGLEQSSFQWSPSGRRTGSLYCRVGIGFHLQIYPDGKVNGSHEANMLSVLEIFAVSQGIVGIRGVFSNKFLAMSKKGKLHASAKFTDDCKFRERFQENSYNTYASAIHRTEKTGREWYVALNKRGKAKRGCSPRVKPQHISTHFLPRFKQSEQPELSFTVTVPEKKKPPSPIKPKIPLSAPRKNTNSVKYRLKFRFG
rate of hair shaft elongation [1]: slow the rate of hair shaft elongation over time
